Where a SMILES comes first, the peptide text is derived from it. Bridges are numbered along the chain shown (N, C = ends). [ ]: non-standard residue; d: D form. The star is where a group is joined. ξ: configuration not given here. Phe(4-COOH) = N[C@@H](Cc1ccc(C(=O)O)cc1)C(=O)O; Bip = N[C@@H](Cc1ccc(-c2ccccc2)cc1)C(=O)O; hArg = N=C(N)NCCCC[C@H](N)C(=O)O; 4Pal = N[C@@H](Cc1ccncc1)C(=O)O; Cha = N[C@@H](CC1CCCCC1)C(=O)O; Ile(3ξ) = CCC(C)[C@H](N)C(=O)O; Thr(3ξ) = CC(O)[C@H](N)C(=O)O; Carboxymethyl = O=C(O)C*; NMeA = CN[C@@H](C)C(=O)O; Orn = NCCC[C@H](N)C(=O)O; Aun = NCCCCCCCCCCC(=O)O; Dab = NCC[C@H](N)C(=O)O; Dap = NC[C@H](N)C(=O)O; AEEA = NCCOCCOCC(=O)O; Sar = CNCC(=O)O

T1 sequence (Q15116 25-288): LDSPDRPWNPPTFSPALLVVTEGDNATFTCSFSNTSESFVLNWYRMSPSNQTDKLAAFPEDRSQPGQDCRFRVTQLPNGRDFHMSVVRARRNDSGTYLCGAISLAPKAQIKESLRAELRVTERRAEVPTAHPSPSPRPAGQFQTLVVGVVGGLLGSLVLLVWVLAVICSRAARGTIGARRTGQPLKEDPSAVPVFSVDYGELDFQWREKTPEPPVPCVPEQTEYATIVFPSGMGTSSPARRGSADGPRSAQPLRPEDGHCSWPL

The assay concerns the target T1, PD-1/PD-L1 interaction (PE-labeled human PD-L1-Ig binding to Jurkat cell line over-expressing human PD-1) (Homo sapiens, UniProt Q15116).
T1 construct: expressed in transfected cells; host or cells: Jurkat
As to the kind of experiment: Jurkat-PD-1 Cell Binding High-Content Screening Assay (CBA). As to conditions: Jurkat-hPD-1 cells, PE-labeled PD-L1-Ig 20 nM final; read-out: Jurkat HPD1 PDL1 IC50. Put shortly: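 Jurkat cells overexpressing human PD-1 (8×10^3/well, DMEM + 10% FCS) preincubated with compound 2 h at 37 °C, then PE-labelled human PD-L1-Ig (20 nM final) for 1 h. Cells fixed in paraformaldehyde with Hoechst 33342; bound PD-L1 quantified by high-content imaging.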
One may read the IC50 as the concentration that gives 50% inhibition. Take `CC(C)C[C@H]1NC(=O)[C@H](C)N(C)C(=O)[C@H](C(C)C)NC(=O)[C@H](Cc2ccc(-c3ccccc3)cc2)NC(=O)[C@H](C(C)C)NC(=O)[C@H](Cc2c[nH]c3ccccc23)NC(=O)[C@H](CC(=O)O)NC(=O)[C@H](Cc2ccc(OCC(=O)O)cc2)NC(=O)[C@H](CN)NC(=O)CSC[C@@H](C(=O)NCCOCCOCC(=O)N[C@@H](CN)C(=O)NCCCCCCCCCCC(=O)O)NC(=O)[C@H](C(C)O)NC(=O)[C@H](C(C)C)NC(=O)[C@H](CC2CCCCC2)NC(=O)[C@H](CCN)NC1=O` (stereo partly drawn) [Example 2099] ({CH2CO}-[Dap]Y(Carboxymethyl)DWV[Bip]V[NMeA][dL][Dab][Cha]V[Thr(3ξ)]C[AEEA][Dap][Aun]-OH; thioether N-14): the IC50 was found to be 17 nM.
The value for `CC(C)C[C@H]1NC(=O)[C@H](C)N(C)C(=O)[C@H](C(C)C)NC(=O)[C@H](Cc2ccc(-c3ccccc3)cc2)NC(=O)[C@H](C(C)C)NC(=O)[C@H](Cc2c[nH]c3ccccc23)NC(=O)[C@H](CC(=O)O)NC(=O)[C@H](Cc2ccc(OCC(=O)O)cc2)NC(=O)[C@H](Cc2ccncc2)NC(=O)CSC[C@@H](C(=O)N[C@@H](CCCCN)C(=O)NCCOCCOCC(=O)NCCCCCCCCCCC(=O)O)NC(=O)[C@H](CO)NC(=O)[C@H](C(C)C)NC(=O)[C@H](CC2CCCCC2)NC(=O)[C@H](CCN)NC1=O` [Example 2100] ({CH2CO}-[4Pal]Y(Carboxymethyl)DWV[Bip]V[NMeA][dL][Dab][Cha]VSCK[AEEA][Aun]-OH; thioether N-14) was 21.7 nM.
For `CC(C)C[C@H]1NC(=O)[C@H](C)N(C)C(=O)[C@H](C(C)C)NC(=O)[C@H](Cc2ccc(-c3ccccc3)cc2)NC(=O)[C@H](C(C)C)NC(=O)[C@H](Cc2c[nH]c3ccccc23)NC(=O)[C@H](CC(=O)O)NC(=O)[C@H](Cc2ccc(C(=O)O)cc2)NC(=O)[C@H](Cc2ccc(OCC(=O)O)cc2)NC(=O)CSC[C@@H](C(=O)N[C@@H](CCCCN)C(=O)NCCOCCOCC(=O)NCCCCCCCCCCC(=O)O)NC(=O)[C@H](CO)NC(=O)[C@H](C(C)C)NC(=O)[C@H](CC2CCCCC2)NC(=O)[C@H](CCN)NC1=O` [Example 2101] ({CH2CO}-Y(Carboxymethyl)[Phe(4-COOH)]DWV[Bip]V[NMeA][dL][Dab][Cha]VSCK[AEEA][Aun]-OH; thioether N-14) the value was 14.6 nM; for `CC(C)[C@@H]1NC(=O)[C@H](CC2CCCCC2)NC(=O)[C@H](CCN)NC(=O)CN(C)C(=O)[C@H](C)N(C)C(=O)[C@H](C(C)C)NC(=O)[C@H](Cc2ccc(-c3ccccc3)cc2)NC(=O)[C@H](C(C)C)NC(=O)[C@H](Cc2c[nH]c3ccccc23)NC(=O)[C@H](CC(=O)O)NC(=O)[C@H](Cc2ccncc2)NC(=O)[C@H](Cc2ccc(OCC(=O)O)cc2)NC(=O)CSC[C@@H](C(=O)N[C@@H](CCCCN)C(=O)NCCOCCOCC(=O)NCCCCCCCCCCC(=O)O)NC(=O)[C@H](CO)NC1=O` [Example 2102] ({CH2CO}-Y(Carboxymethyl)[4Pal]DWV[Bip]V[NMeA][Sar][Dab][Cha]VSCK[AEEA][Aun]-OH; thioether N-14), 337 nM.
The value for `CC(C)C[C@H]1NC(=O)[C@H](C)N(C)C(=O)[C@H](C(C)C)NC(=O)[C@H](Cc2ccc(-c3ccccc3)cc2)NC(=O)[C@H](C(C)C)NC(=O)[C@H](Cc2c[nH]c3ccccc23)NC(=O)[C@H](CC(=O)O)NC(=O)[C@H](CCCCNC(=N)N)NC(=O)[C@H](Cc2ccc(OCC(=O)O)cc2)NC(=O)CSC[C@@H](C(=O)N[C@@H](CCCCN)C(=O)NCCOCCOCC(=O)NCCCCCCCCCCC(=O)O)NC(=O)[C@H](CO)NC(=O)[C@H](C(C)C)NC(=O)[C@H](CC2CCCCC2)NC(=O)[C@H](CCN)NC1=O` [Example 2103] ({CH2CO}-Y(Carboxymethyl)[hArg]DWV[Bip]V[NMeA][dL][Dab][Cha]VSCK[AEEA][Aun]-OH; thioether N-14) was 29.6 nM; that for `CCC(C)[C@@H]1NC(=O)[C@H](Cc2ccc(-c3ccccc3)cc2)NC(=O)[C@H](C(C)C)NC(=O)[C@H](Cc2c[nH]c3ccccc23)NC(=O)[C@H](CC(=O)O)NC(=O)[C@H](Cc2ccc(OCC(=O)O)cc2)NC(=O)[C@H](Cc2ccncc2)NC(=O)CSC[C@@H](C(=O)N[C@@H](CCCN)C(=O)NCCOCCOCC(=O)NCCCCCCCCCCC(=O)O)NC(=O)[C@H](C(C)O)NC(=O)[C@H](C(C)C)NC(=O)[C@H](CC2CCCCC2)NC(=O)[C@H](CCN)NC(=O)[C@@H](CC(C)C)NC(=O)[C@H](C)N(C)C1=O` (stereo partly drawn) [Example 2104] ({CH2CO}-[4Pal]Y(Carboxymethyl)DWV[Bip][Ile(3ξ)][NMeA][dL][Dab][Cha]V[Thr(3ξ)]C[Orn][AEEA][Aun]-OH; thioether N-14) was 14.1 nM.
With `CCC(C)[C@@H]1NC(=O)[C@H](Cc2ccc(-c3ccccc3)cc2)NC(=O)[C@H](C(C)C)NC(=O)[C@H](Cc2c[nH]c3ccccc23)NC(=O)[C@H](CC(=O)O)NC(=O)[C@H](Cc2ccc(OCC(=O)O)cc2)NC(=O)[C@H](Cc2ccncc2)NC(=O)CSC[C@@H](C(=O)N[C@@H](CCCCN)C(=O)NCCOCCOCC(=O)NCCCCCCCCCCC(=O)O)NC(=O)[C@H](C(C)O)NC(=O)[C@H](C(C)C)NC(=O)[C@H](CC2CCCCC2)NC(=O)[C@H](CCN)NC(=O)[C@@H](CC(C)C)NC(=O)[C@H](C)N(C)C1=O` (stereo partly drawn) [Example 2105] ({CH2CO}-[4Pal]Y(Carboxymethyl)DWV[Bip][Ile(3ξ)][NMeA][dL][Dab][Cha]V[Thr(3ξ)]CK[AEEA][Aun]-OH; thioether N-14), the concentration for half-maximal inhibition (IC50) worked out at 15 nM.
The value for `CCC(C)[C@@H]1NC(=O)[C@H](Cc2ccc(-c3ccccc3)cc2)NC(=O)[C@H](C(C)C)NC(=O)[C@H](Cc2c[nH]c3ccccc23)NC(=O)[C@H](CC(=O)O)NC(=O)[C@H](Cc2ccncc2)NC(=O)[C@H](Cc2ccc(OCC(=O)O)cc2)NC(=O)CSC[C@@H](C(=O)N[C@@H](CCCN)C(=O)NCCOCCOCC(=O)NCCCCCCCCCCC(=O)O)NC(=O)[C@H](C(C)O)NC(=O)[C@H](C(C)C)NC(=O)[C@H](CC2CCCCC2)NC(=O)[C@H](CCN)NC(=O)[C@@H](CC(C)C)NC(=O)[C@H](C)N(C)C1=O` (stereo partly drawn) [Example 2106] ({CH2CO}-Y(Carboxymethyl)[4Pal]DWV[Bip][Ile(3ξ)][NMeA][dL][Dab][Cha]V[Thr(3ξ)]C[Orn][AEEA][Aun]-OH; thioether N-14) was 8 nM; that for `CCC(C)[C@@H]1NC(=O)[C@H](Cc2ccc(-c3ccccc3)cc2)NC(=O)[C@H](C(C)C)NC(=O)[C@H](Cc2c[nH]c3ccccc23)NC(=O)[C@H](CC(=O)O)NC(=O)[C@H](Cc2ccncc2)NC(=O)[C@H](Cc2ccc(OCC(=O)O)cc2)NC(=O)CSC[C@@H](C(=O)N[C@@H](CCCCN)C(=O)NCCOCCOCC(=O)NCCCCCCCCCCC(=O)O)NC(=O)[C@H](C(C)O)NC(=O)[C@H](C(C)C)NC(=O)[C@H](CC2CCCCC2)NC(=O)[C@H](CCN)NC(=O)[C@@H](CC(C)C)NC(=O)[C@H](C)N(C)C1=O` (stereo partly drawn) [Example 2107] ({CH2CO}-Y(Carboxymethyl)[4Pal]DWV[Bip][Ile(3ξ)][NMeA][dL][Dab][Cha]V[Thr(3ξ)]CK[AEEA][Aun]-OH; thioether N-14) was 21.9 nM.
For `CC(C)C[C@H]1NC(=O)[C@H](C)N(C)C(=O)[C@H](CCC(=O)O)NC(=O)[C@H](Cc2ccc(-c3ccccc3)cc2)NC(=O)[C@H](C(C)C)NC(=O)[C@H](Cc2c[nH]c3ccccc23)NC(=O)[C@H](CC(=O)O)NC(=O)[C@H](Cc2ccc(C(=O)O)cc2)NC(=O)[C@H](Cc2ccc(OCC(=O)O)cc2)NC(=O)CSC[C@@H](C(=O)N[C@@H](CCCCN)C(=O)NCCOCCOCC(=O)NCCCCCCCCCCC(=O)O)NC(=O)[C@H](C(C)O)NC(=O)[C@H](C(C)C)NC(=O)[C@H](CC2CCCCC2)NC(=O)[C@H](CCN)NC1=O` (stereo partly drawn) [Example 2108] ({CH2CO}-Y(Carboxymethyl)[Phe(4-COOH)]DWV[Bip]E[NMeA][dL][Dab][Cha]V[Thr(3ξ)]CK[AEEA][Aun]-OH; thioether N-14) the value was 24.4 nM; for `CC(C)C[C@H]1NC(=O)[C@H](C)N(C)C(=O)[C@H](C(C)C)NC(=O)[C@H](Cc2ccc(-c3ccccc3)cc2)NC(=O)[C@H](C(C)C)NC(=O)[C@H](Cc2c[nH]c3ccccc23)NC(=O)[C@H](CC(=O)O)NC(=O)[C@H](Cc2ccc(C(=O)O)cc2)NC(=O)[C@H](Cc2ccc(OCC(=O)O)cc2)NC(=O)CSC[C@@H](C(=O)N[C@@H](CCCCN)C(=O)NCCOCCOCC(=O)NCCCCCCCCCCC(=O)O)NC(=O)[C@H](C(C)O)NC(=O)[C@H](C(C)C)NC(=O)[C@H](CC2CCCCC2)NC(=O)[C@H](CCN)NC1=O` (stereo partly drawn) [Example 2109] ({CH2CO}-Y(Carboxymethyl)[Phe(4-COOH)]DWV[Bip]V[NMeA][dL][Dab][Cha]V[Thr(3ξ)]CK[AEEA][Aun]-OH; thioether N-14), 10.8 nM.
In the case of `CC(C)C[C@H]1NC(=O)[C@H](C)N(C)C(=O)[C@H](C(C)C)NC(=O)[C@H](Cc2ccc(-c3ccccc3)cc2)NC(=O)[C@H](C(C)C)NC(=O)[C@H](Cc2c[nH]c3ccccc23)NC(=O)[C@H](CC(=O)O)NC(=O)[C@H](Cc2ccc(C(=O)O)cc2)NC(=O)[C@H](Cc2ccc(OCC(=O)O)cc2)NC(=O)CSC[C@@H](C(=O)N[C@@H](CCCN)C(=O)NCCOCCOCC(=O)NCCCCCCCCCCC(=O)O)NC(=O)[C@H](CO)NC(=O)[C@H](C(C)C)NC(=O)[C@H](CC2CCCCC2)NC(=O)[C@H](CCN)NC1=O` [Example 2110] ({CH2CO}-Y(Carboxymethyl)[Phe(4-COOH)]DWV[Bip]V[NMeA][dL][Dab][Cha]VSC[Orn][AEEA][Aun]-OH; thioether N-14), the IC50 was determined as 17 nM.
Take `CC(C)C[C@H]1NC(=O)[C@H](C)N(C)C(=O)[C@H](C(C)C)NC(=O)[C@H](Cc2ccc(-c3ccccc3)cc2)NC(=O)[C@H](C(C)C)NC(=O)[C@H](Cc2c[nH]c3ccccc23)NC(=O)[C@H](CC(=O)O)NC(=O)[C@H](CCCCNC(=N)N)NC(=O)[C@H](Cc2ccc(OCC(=O)O)cc2)NC(=O)CSC[C@@H](C(=O)N[C@@H](CCCN)C(=O)NCCOCCOCC(=O)NCCCCCCCCCCC(=O)O)NC(=O)[C@H](C(C)O)NC(=O)[C@H](C(C)C)NC(=O)[C@H](CC2CCCCC2)NC(=O)[C@H](CCN)NC1=O` (stereo partly drawn) [Example 2111] ({CH2CO}-Y(Carboxymethyl)[hArg]DWV[Bip]V[NMeA][dL][Dab][Cha]V[Thr(3ξ)]C[Orn][AEEA][Aun]-OH; thioether N-14): the IC50 was 29.9 nM.
